Numbering of substitutions follows the chain as printed.
What was measured:
Assay type in all cases: cell-based
[1] = target: T1, ERα-Y537S (Homo sapiens, UniProt P03372, Y537S); test: Degradation of HA-ERα-Y537S mutant in transfected HEK293 cells, Western blot; conditions: HEK293 cells transfected with HA-ERα-Y537S, Western blot relative to actin
T1 construct: host or cells: HEK293
T1 sequence (P03372 1-595 Y537S): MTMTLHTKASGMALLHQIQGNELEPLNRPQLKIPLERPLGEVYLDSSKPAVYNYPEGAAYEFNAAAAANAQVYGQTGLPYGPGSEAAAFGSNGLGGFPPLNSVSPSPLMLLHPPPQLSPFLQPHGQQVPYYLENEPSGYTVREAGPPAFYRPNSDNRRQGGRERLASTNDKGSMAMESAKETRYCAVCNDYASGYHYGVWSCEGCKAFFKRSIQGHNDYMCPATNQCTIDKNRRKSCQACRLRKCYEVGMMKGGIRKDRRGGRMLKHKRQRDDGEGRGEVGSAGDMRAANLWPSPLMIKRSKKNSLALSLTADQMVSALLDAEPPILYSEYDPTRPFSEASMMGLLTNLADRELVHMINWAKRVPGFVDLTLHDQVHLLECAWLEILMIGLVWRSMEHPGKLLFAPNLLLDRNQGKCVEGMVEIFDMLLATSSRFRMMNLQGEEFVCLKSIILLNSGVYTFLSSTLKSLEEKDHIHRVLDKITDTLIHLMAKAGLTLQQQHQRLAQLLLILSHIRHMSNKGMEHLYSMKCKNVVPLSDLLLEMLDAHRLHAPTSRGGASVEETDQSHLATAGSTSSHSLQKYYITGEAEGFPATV
Text: HEK293 cells transfected with the HA-ERα-Y537S mutant were stimulated with the indicated compounds and HA-ERα-Y537S protein levels assessed by Western blot (left) and quantitated relative to actin (right).

[2] = target: T2, ERα (Homo sapiens, UniProt P03372); test: Degradation of ERα in MCF-7 cells, Western blot; conditions: indicated concentrations
T2 construct: endogenous in cells; host or cells: MCF-7
T2 sequence (P03372 1-595): T1 sequence (P03372 1-595 Y537S) with S537Y
Experimental: MCF-7 were treated with the indicated compounds and ERα protein levels were assessed by Western blot (top panel). Actin served as a loading control (bottom panel). Quantification of the western blot is shown on the right.

[3] = test system: Tamoxifen-resistant MCF-7 cells (TamR) and long-term estrogen-deprived MCF-7 cells (LTED); test: Cell viability in cell line models of endocrine resistance after 5 days; conditions: TamR and LTED MCF-7 cells, normalized to DMSO-treated cells
Text: Cells were a gift from Dr. Donald McDonnell (Duke University).

CCCCN(C)C(=O)CCCCCCCCCCCC1=CCC2(CO)COC(c3ccc(O)cc3)C1C2 (stereo not drawn) [AB-82P, N-butyl-12-(1-(hydroxymethyl)-4-(4-hydroxyphenyl)-3-oxabicyclo[3.3.1]non-6-en-6-yl)-N-methyldodecanamide]
degradation of HA-ERα-Y537S protein levels [1]: induced degradation of ERα-Y537S
degradation of ERα protein levels [2]: Dose-dependent degradation of ERα
effect on cell viability in models of endocrine resistance [3]: inhibitory effects

From patent publication US12509435B2, “Compounds for selective binding to estrogen receptors alpha/beta relative to GPER/GPR30 and methods of treating disease states and conditions mediated through these receptors” (UNM RAINFOREST INNOVATIONS, priority 2019, dated 2025)
